From ChEMBL document CHEMBL6096702, “Discovery of a Novel p38α-MK2 Complex Inhibitor as a Potential Choice for Autoimmune Diseases” (J Med Chem, 2025)

Experiments:
[1] = AUClast in male Sprague-Dawley rat at 2 mg/kg, po measured after 24 hrs by LC-MS/MS analysis; type: ADME, organism-based; conditions: in vivo
[2] = Inhibition of LPS-induced TNF-alpha production in human PBMC cells preincubated with compound for 1 hrs followed by LPS addition and measured after 4 hrs; type: functional, cell-based
[3] = AUClast in male Sprague-Dawley rat at 1 mg/kg, iv measured after 24 hrs by LC-MS/MS analysis; type: ADME, organism-based; conditions: in vivo
[4] = Selectivity ratio of IC50 for inhibition of N-terminal GST-tagged wildtype human P38alpha (4 to 152 residues) extracted from Escherichia coli/GST-tagged PRAK (unknown origin) to IC50 for inhibition of N-terminal GST-tagged wildtype human P38alpha (4 to 152 residues) extracted from Escherichia coli/GST-tagged MK2 (unknown origin)
[5] = Inhibition of LPS-induced IL-1beta production in human PBMC cells preincubated with compound for 1 hrs followed by LPS addition and measured after 4 hrs; type: functional, cell-based
[6] = Clearance in male Sprague-Dawley rat at 1 mg/kg, iv measured after 24 hrs by LC-MS/MS analysis; type: ADME, organism-based; conditions: in vivo
[7] = Cmax in male Sprague-Dawley rat at 2 mg/kg, po measured after 24 hrs by LC-MS/MS analysis; type: ADME, organism-based; conditions: in vivo
[8] = Half-life in male Sprague-Dawley rat at 1 mg/kg, iv measured after 24 hrs by LC-MS/MS analysis; type: ADME, organism-based; conditions: in vivo
[9] = MRT in male Sprague-Dawley rat at 1 mg/kg, iv measured after 24 hrs by LC-MS/MS analysis; type: ADME, organism-based; conditions: in vivo
[10] = Volume of distribution at steady state in male Sprague-Dawley rat at 1 mg/kg, iv measured after 24 hrs by LC-MS/MS analysis; type: ADME, organism-based; conditions: in vivo, read-out: Vdss
[11] = Inhibition of N-terminal GST-tagged wildtype human P38alpha (4 to 152 residues) extracted from Escherichia coli/GST-tagged PRAK (unknown origin) assessed as reduction in HSP27 phosphorylation incubated for 2 hrs in presence of ATP and HSP27-FITC peptide by fluorescence polarization based IMAP assay
[12] = Oral bioavailability in male Sprague-Dawley rat at 2 mg/kg measured after 24 hrs by LC-MS/MS analysis; type: ADME, organism-based; conditions: in vivo

AUC(0-t) at 24 h [1]: 861 ng·h/mL
IC50 [2]: < 0.1 nM
AUC(0-t) at 24 h [3]: 1080 ng·h/mL
Ratio IC50 [4]: 125
IC50 [5]: 0.02 nM
clearance [6]: 16.3 mL/min/kg
Cmax [7]: 283 ng/mL
half-life [8]: 0.9 h
MRT [9]: 1.2 h
Vd [10]: 1.1 L/kg
IC50 [11]: 1 nM
bioavailability [12]: 40%
Compound: Cc1cnc(-c2cccc(C(C)(C)O)c2F)c(F)c1-n1c(C)cc(OCc2ncc(F)cc2F)c(Cl)c1=O
